Test results as given in patent US20240051942A1, “SOLID FORM OF COMPOUND” (INXMED (NANJING) CO., LTD., priority 2020, published 2024).
≈ marks a conversion by molar mass, not a printed value. Structures can show the parent of a compound that is named as a salt.

Key:
Format in all cases: physicochemical
[1] = Suspension competitive crystal transformation test of crystalline forms I and III of the tartrate salt (XRPD); details: for Crystalline form after suspension competition: 24 h
Experimental: Crystalline form I and crystalline form III (each 20 mg) were weighed and added into a 2 mL or 10 mL glass bottle, and 0.5 mL or 1 mL of organic solvent was added, respectively, according to the solubility. Two batches were prepared with the same solvent, and placed respectively at room temperature and 50° C. for suspension competition for 24 h. The suspension was centrifuged (10000 rpm, 3 min). The obtained solid powder was then vacuum-dried and tested for XRPD (See FIGS. 30 and 31 for details).

[2] = Solubility test (shaker 25° C., 24 hours, filtrate by HPLC); details: for solubility at 24 h: 25 °C, thermodynamic from solid
Experimental: (§1) A certain amount of crystalline form A of free base of the compound of formula (I), crystalline form I of the tartrate salt, and crystalline form III of the tartrate salt were weighed and placed in a 5 mL sample bottle. Deionized water, pH 2.0 glycine-hydrochloric acid buffer solution, pH 4.5 Na2HPO4-citric acid buffer solution, and pH 6.8 Na2HPO4-citric acid buffer solution were added respectively (each 2 mL). The mixture was placed on a shaker at 25° C., shaken for 24 hours, and then filtered. The filtrate was tested for solubility by HPLC; and the solid was detected by XRPD to determine whether the crystalline form was transformed.
The chromatographic conditions were as follows: • Chromatographic column: Unitary C18 (5 μm, 100 A, 4.6×250 mm) • Mobile phase: Phase A was ammonium acetate with pH of 6.2, and phase B was acetonitrile, A: B=10:90. • Detection wavelength: 230 nm, Column temperature: 35° C. • Injection volume: 20 μL

[3] = XRPD of the solid after the solubility test (crystal transformation)
Experimental: as §1

[4] = Accelerated stability test: influence factor test and accelerated test, solid XRPD; details: for Stability of crystalline form, summary in words: high temperature, high humidity, strong light and accelerated test conditions
Experimental: According to the stability test requirements for the raw drug in the fourth part of the 2015 edition of the “Chinese Pharmacopoeia”, “Guiding Principles for the Stability Test of Raw Drugs and Preparations”, the influence factor test and the accelerated test were investigated on crystalline form.
High temperature test (T): The powder was placed in a suitable sealed glass bottle, and placed at 60° C. for 10 days. Samples were taken on the 5th and 10th day to detect the solid XRPD.
High humidity test (H): The powder was placed in an open constant temperature and humidity box, and placed at 25° C., 90%±5% RH for 10 days. Samples were taken on the 5th and 10th day and the solid XRPD was detected so as to investigate the moisture absorption and deliquescence performances.
Strong light irradiation test (L): The powder was placed in an open box equipped with a fluorescent lamp, and placed under the condition of an illumination of 4500±5001x for 10 days. Samples were taken on the 5th and 10th day to detect the solid XRPD.
Accelerated test (A): The powder was placed in an open constant temperature and humidity box, and placed at 40° C., 75%±5% RH for 10 days. Samples were taken on the 5th and 10th day to detect the solid XRPD.

[5] = Stability under pressure condition (powder tablet press, XRPD); details: mechanical pressures of 2, 4, 6, 8, and 10 N, 5 minutes
Experimental: An appropriate amount of powders of crystalline form A of the free base, crystalline form I of the tartrate salt, and crystalline form III of the tartrate salt were weighed and evenly spread on the bottom of the mold of a powder tablet press. To simulate the pressure conditions in a formulation process, mechanical pressures of 2, 4, 6, 8, and 10 N were applied respectively. The pressure was kept stable for 5 minutes, and then samples were taken for XRPD to investigate the stability of the crystalline form under pressure conditions. For details of patterns, see FIGS. 24-26.

[6] = Stability under grinding condition (ball mill, XRPD); details: automatic ball mill, grinding 5, 10, 15, and 30 min
Experimental: An appropriate amount of powders of crystalline form A of the free base, crystalline form I of the tartrate salt and crystalline form III of the tartrate salt were weighed and evenly spread in an agate mortar. Agate beads were added. To simulate the grinding conditions in a formulation process, the vibration frequency of the automatic ball mill was set at 25S-1, and the grinding was carried out for 5, 10, 15, and 30 min, respectively. Then samples were taken for XRPD to investigate the stability of the crystalline form under grinding conditions. For details of patterns, see FIGS. 27-29.

[7] = Water adsorption and desorption test (DVS); details: for Moisture absorption: 25° C.
Experimental: • 4. Gravimetric Dynamic Vapor Sorption Isotherm Plot (DVS)
Dynamic water adsorption instrument (DVS) was used to investigate the adsorption and desorption test of crystalline forms I and III of the tartrate salt at 25° C. in the range of 0-95% relative humidity, so as to determine hygroscopicity of various crystalline forms (For details, see FIGS. 4d and 5d).

[8] = Deionized water, 25° C., 24 hours
[9] = pH 6.8 Na2HPO4-citric acid buffer solution, 25° C., 24 hours
[10] = pH 2.0 glycine-hydrochloric acid buffer solution, 25° C., 24 hours
[11] = pH 4.5 Na2HPO4-citric acid buffer solution, 25° C., 24 hours
[12] = pH 6.8 buffered saline solution
[13] = solid after solubility test in deionized water
[14] = Accelerated (40° C./75%), 5 days
[15] = Accelerated (40° C./75%), 10 days
[16] = High humidity (92.5% RH), 25° C., 5 days
[17] = High humidity (92.5% RH), 25° C., 10 days
[18] = High temperature (60° C.), 5 days
[19] = High temperature (60° C.), 10 days
[20] = Strong light (4500 lx), 10 days

SMILES	Solubility [2, 8] [µg/mL]	Solubility [2, 9] [µg/mL]	Solubility [2, 10] [µg/mL]	Solubility [2, 11] [µg/mL]	Solubility compared with the amorphous form of the free base [2, 12]	Crystal transformation as detected by XRPD [3, 13]	Stability of crystalline form (XRPD) [4, 14]	Stability of crystalline form (XRPD) [4, 15]	Stability of crystalline form (XRPD) [4, 16]	Stability of crystalline form (XRPD) [4, 17]	Stability of crystalline form (XRPD) [4, 18]	Stability of crystalline form (XRPD) [4, 19]	Stability of crystalline form (XRPD) ([4]; Strong light (4500 lx), 5 days)	Stability of crystalline form (XRPD) [4, 20]	Stability of crystalline form, summary in words [4]	Stability of the crystalline form under pressure conditions (XRPD) [5]	Stability of the crystalline form under grinding conditions (XRPD) [6]	Moisture absorption ([7]; from 90% to 95% RH) [%]	Moisture absorption ([7]; humidity range of 40-80% RH) [%]	also measured
COc1cc(C(=O)NC2CCN(C)CC2)c(F)cc1Nc1ncc(C(F)(F)F)c(Oc2cccc3c2C(=O)N(C)C3)n1																				Crystalline form after suspension competition ([1]; Cyclohexane, 50° C.): Mixture; Crystalline form after suspension competition ([1]; Cyclohexane, room temperature): Mixture; Crystalline form after suspension competition ([1]; Methyl tert-butyl ether, 50° C.): Mixture; Crystalline form after suspension competition ([1]; Methyl tert-butyl ether, room temperature): Mixture
COc1cc(C(=O)NC2CCN(C)CC2)c(F)cc1Nc1ncc(C(F)(F)F)c(Oc2cccc3c2C(=O)N(C)C3)n1 [Amorphous form of the free base]	1070 (≈ 1.82 mM)	50 (≈ 0.085 mM)																		solubility at 24 h ([2]; Na2HPO4-citric acid buffer, pH 4.5, aqueous buffer, pH 4.5 Na2HPO4-citric acid buffer solution, 24 hours): 8500 µg/mL (≈ 14.4 mM); solubility at 24 h ([2]; glycine-hydrochloric acid buffer, pH 2, aqueous buffer, pH 2.0 glycine-hydrochloric acid buffer solution, 24 hours): > 10000 µg/mL
COc1cc(C(=O)NC2CCN(C)CC2)c(F)cc1Nc1ncc(C(F)(F)F)c(Oc2cccc3c2C(=O)N(C)C3)n1 [Crystalline form A of the free base]	33 (≈ 0.0561 mM)	1060 (≈ 1.8 mM)	>10000	>10000	significantly improved	no crystal transformation	Consistent	Consistent	Consistent	Consistent	Consistent	Consistent	Consistent	Consistent	stable under above test conditions without crystal transformation	stable	become amorphous			Crystal transformation as detected by XRPD ([3]; solid after solubility test in pH 6.8 buffered saline solution): no crystal transformation
COc1cc(C(=O)NC2CCN(C)CC2)c(F)cc1Nc1ncc(C(F)(F)F)c(Oc2cccc3c2C(=O)N(C)C3)n1 [Crystalline form I of the tartrate salt]	2590	>10000	>10000	5200	significantly improved	no crystal transformation	Consistent	Consistent	Consistent	Consistent	Consistent	Consistent	Consistent	Consistent	stable under above test conditions without crystal transformation	stable	only reduced in the degree of crystallinity	0.08	0.33	Solubility compared with the amorphous form of the free base ([2]; deionized water): significantly improved; Weight gain (DVS) ([7]; increase in relative humidity from about 0 to about 95%): about 1%; Relative stability of the crystalline form in suspension competition ([1]; conventional solvents except methyl tert-butyl ether and cyclohexane, room temperature and 50° C.): stable crystalline form
COc1cc(C(=O)NC2CCN(C)CC2)c(F)cc1Nc1ncc(C(F)(F)F)c(Oc2cccc3c2C(=O)N(C)C3)n1 [Crystalline form III of the tartrate salt]	>10000	>10000	>10000	>10000			Consistent	Consistent	Consistent	Consistent,	Consistent	Consistent	Consistent	Consistent	stable under above test conditions without crystal transformation	stable	become amorphous	18.1	0.37	Solubility ([2]; all the solvent systems): very good solubility; Crystallinity ([4]; high-humidity environment): reduced
